Assay results published in patent US20230126310A1 (priority 2020, published 2023).
Structures can show the parent of a compound that is named as a salt. Numbered stars: 1 amine (or outer) side, 2 acyl side, 3 side chain; on linkers, the order of the positions; unused ones are H or OH. Bridge positions count the residues as written; N and C are the ends. Square brackets hold non-standard residues; d marks the D form. Peptide text beside a SMILES is read from it. I, II: the chains in the order shown. Actinocin(9to1) = Cc1c2oc3c(C)ccc(C(=O)[*:1])c3nc-2c(C(=O)[*:2])c(N)c1=O; NMeV = CN[C@H](C(=O)O)C(C)C; Sar = CNCC(=O)O

What follows are molecules tested on SARS-CoV-2 (assay: microbe, parasite or virus in culture). Settings: Severe acute respiratory syndrome coronavirus 2, Caco-2, 48 h.
`C[C@@H]1CN(Cc2ccc(F)cc2)[C@@H](C)CN1C(=O)c1cc2c(C(=O)C(=O)N(C)C)cn(C)c2cc1Cl` [talmapimod] gave an IC50 of 22.9 µM. Work on `Cc1nc(C#Cc2ccnc(Cl)c2)c(C)n1-c1ccc(F)cc1` [Basimglurant] yielded an IC50 of 25.2 µM. With `Cc1cc(C)c2c(c1)[C@@H](N(Cc1cc(C(F)(F)F)cc(C(F)(F)F)c1)c1nnn(C)n1)CCCN2C[C@H]1CC[C@H](C(=O)O)CC1` [Evacetrapib (LY2484595), Evacetrapib] the IC50 was 26.7 µM.

Same assay, conditions: Severe acute respiratory syndrome coronavirus 2, Caco-2, 48 h, read-out: % Inh. (% Inhibition of SARS-CoV-2)
Work on `Cc1cc(Nc2ncc(Cl)c(Nc3ccccc3S(=O)(=O)C(C)C)n2)c(OC(C)C)cc1C1CCNCC1` [Ceritinib] yielded an inhibition at 10 µM of 60%. With `O=C(OCC(COC(=O)c1cccnc1)(COC(=O)c1cccnc1)COC(=O)c1cccnc1)c1cccnc1` [niceritrol] the inhibition at 10 µM was 50.1%. For `N[C@H](C(=O)O)c1ccc(O)cc1` [oxfenicine], the inhibition at 10 µM was 50.7%. For `O=C(Nc1cc(Cl)cc(Cl)c1O)c1c(O)c(Cl)cc(Cl)c1Cl` [OXYCLOZANIDE], the inhibition at 10 µM was 94.4%. `COc1ccccc1N1CCN(CC(O)COc2cccc3ccccc23)CC1` (stereo not drawn) [NAFTOPIDIL] showed an inhibition at 10 µM of 90.6%. `CCc1nn(CCCN2CCN(c3cccc(Cl)c3)CC2)c(=O)n1CCOc1ccccc1` [NEFAZODONE HYDROCHLORIDE] showed an inhibition at 10 µM of 71.7%. With `N#CC(=C(/N)Sc1ccccc1N)/C(C#N)=C(\N)Sc1ccccc1N` [U-0126] the inhibition at 10 µM was 79.1%. Molecule `Clc1ccc(CCC(Cn2ccnc2)Sc2c(Cl)cccc2Cl)cc1` (stereo not drawn) [BUTOCONAZOLE] has an inhibition at 10 µM of 70.6%. Molecule `CC(=O)CC(c1ccc([N+](=O)[O-])cc1)c1c(O)c2ccccc2oc1=O` (stereo not drawn) [Acenocoumarin] has an inhibition at 10 µM of 64.2%. Work on `C=CCNc1c(O)cc2c(O)c1C[C@@H](C)C[C@H](OC)[C@H](O)[C@@H](C)/C=C(\C)[C@H](OC(N)=O)[C@@H](OC)/C=C\C=C(/C)C(=O)N2` [Retaspimycin (Hydrochloride)] yielded an inhibition at 10 µM of 74.7%. `N#CC1(c2ccc(NC(=O)c3cccnc3NCc3ccncc3)cc2)CCCC1` [Apatinib mesylate] was tested, and the inhibition at 10 µM was 70.9%. Molecule `O=C1c2cccc3c2[C@H](CCC3)CN1[C@@H]1CN2CCC1CC2` [Palonosetron HCl] has an inhibition at 10 µM of 57.4%. In the case of `Clc1ccccc1C(c1ccccc1)(c1ccccc1)n1ccnc1` [CLOTRIMAZOLE], the inhibition at 10 µM is reported as 81.7%. `COc1cccc([C@@H](C)NCCCc2ccccc2Cl)c1` [tecalcet] showed an inhibition at 10 µM of 78.1%. Molecule `C[C@@H](c1nc(-c2ccc(C#N)cc2)cs1)[C@](O)(Cn1cncn1)c1cc(F)ccc1F` [Isavuconazole] has an inhibition at 10 µM of 92.8%. Molecule `O=C(c1ccc(F)c(F)c1Nc1ccc(I)cc1F)N1CC(O)([C@@H]2CCCCN2)C1` [Cobimetinib] has an inhibition at 10 µM of 61.6%. `O=C(O)c1ccc(OCCn2ccnc2)cc1` [Dazoxiben] showed an inhibition at 10 µM of 56%. Work on `C[C@@H]1CN(Cc2ccc(F)cc2)[C@@H](C)CN1C(=O)c1cc2c(C(=O)C(=O)N(C)C)cn(C)c2cc1Cl` [talmapimod] yielded an inhibition at 10 µM of 92.3%. `N#Cc1cn([C@@H]2O[C@H](CO)[C@@H](O)[C@H]2O)c2ncnc(N)c12` [toyocamycin] was tested, and the inhibition at 10 µM was 68.4%. Work on `COC(=O)C1=C(C)NC(C)=C(C(=O)NCCCN2CCC(c3ccccc3)(c3ccccc3)CC2)C1c1ccc([N+](=O)[O-])cc1` (stereo not drawn) [SNAP-5089] yielded an inhibition at 10 µM of 72.6%. `CCNC(=O)Nc1ccc(-c2nc3c(c(N4CCOC[C@@H]4C)n2)CCN(C2COC2)C3)cc1` [GDC-0349] showed an inhibition at 10 µM of 83.8%. With `NC(=O)N/N=C/c1ccc([N+](=O)[O-])o1` [NITROFURAZONE] the inhibition at 10 µM was 87.3%. `Cc1c(-c2ccc(-c3ccccc3F)cc2)nc2ccc(F)cc2c1C(=O)O` [Brequinar sodium salt hydrate] was tested, and the inhibition at 10 µM was 61%. `CCCCNc1cc(C(=O)O)cc(S(N)(=O)=O)c1Oc1ccccc1` [BUMETANIDE] showed an inhibition at 10 µM of 87.5%. With `N=C(N)c1ccc(OCCCCCOc2ccc(C(=N)N)cc2)cc1` [PENTAMIDINE ISETHIONATE] the inhibition at 10 µM was 54.6%. `Cc1cc2c(C(C)C)c(O)c(O)c(C=O)c2c(O)c1-c1c(C)cc2c(C(C)C)c(O)c(O)c(C=O)c2c1O` [gossypol] was tested, and the inhibition at 10 µM was 66.3%. Molecule `CCn1c(=O)c(-c2cc[nH]n2)cc2c(C)nc(N)nc21` [Voxtalisib] has an inhibition at 10 µM of 84.3%. In the case of `C=C[C@H]1CN2CC[C@H]1C[C@H]2[C@H](OC(=O)OCC)c1ccnc2ccc(OC)cc12` [QUININE ETHYL CARBONATE], the inhibition at 10 µM is reported as 59.1%. With `COc1cc(CN2CCN(c3ccc(F)cc3)CC2)cc(OC)c1OC` [1-(4-fluorophenyl)-4-(3,4,5-trimethoxybenzyl)piperazine] the inhibition at 10 µM was 67.3%. `CN1CCC(Nc2ncc3ncnc(Nc4ccc(F)c(Cl)c4)c3n2)CC1` [BIBX-1382] gave an inhibition at 10 µM of 79.3%. In the case of `NC(N)=NCc1cccc(I)c1` [iobenguane], the inhibition at 10 µM is reported as 86.9%. With `Clc1ccc(C(Cn2ccnc2)OCc2ccc(Sc3ccccc3)cc2)c(Cl)c1` (stereo not drawn) [Fenticonazole nitrate] the inhibition at 10 µM was 105%. `O=C1NC(=S)NC(=O)C1C(=O)Nc1ccccc1` [merbarone] showed an inhibition at 10 µM of 50.4%. `N#CN1CCCC1` [pyrrolidine-1-carbonitrile] gave an inhibition at 10 µM of 65.9%. `Cn1cnc2c1c(=O)[nH]c(=O)n2C` [THEOBROMINE] gave an inhibition at 10 µM of 52.4%. Work on `Cc1ccnc2c1CCCC2C(N)=S` (stereo not drawn) [isotiquimide] yielded an inhibition at 10 µM of 50%. With `Clc1ccc(COC(Cn2ccnc2)c2ccc(Cl)cc2Cl)cc1` (stereo not drawn) [ECONAZOLE NITRATE] the inhibition at 10 µM was 87.3%. For `Cc1c2oc3c(C)ccc(C(=O)N[C@@H]4C(=O)N[C@H](C(C)C)C(=O)N5CCC[C@H]5C(=O)N(C)CC(=O)N(C)[C@@H](C(C)C)C(=O)O[C@@H]4C)c3nc-2c(C(=O)N[C@@H]2C(=O)N[C@H](C(C)C)C(=O)N3CCC[C@H]3C(=O)N(C)CC(=O)N(C)[C@@H](C(C)C)C(=O)O[C@@H]2C)c(N)c1=O` [DACTINOMYCIN] (I: T[dV]P[Sar][NMeV] / II: T[dV]P[Sar][NMeV]; ester I:1-I:C, II:1-II:C; linker I:N-II:N via Actinocin(9to1)), the inhibition at 10 µM was 74.6%. With `Cc1cc(C)c2c(c1)[C@@H](N(Cc1cc(C(F)(F)F)cc(C(F)(F)F)c1)c1nnn(C)n1)CCCN2C[C@H]1CC[C@H](C(=O)O)CC1` [Evacetrapib (LY2484595), Evacetrapib] the inhibition at 10 µM was 94.9%. `O=C(CC(c1ccccc1)c1ccccc1)N1CCN(C(c2ccccc2)c2ccccc2)CC1` [NP118809] was tested, and the inhibition at 10 µM was 60.8%. With `C[C@]12CC[C@H](O)CC1=CC[C@@H]1[C@@H]2CC[C@]2(C)C(n3cnc4ccccc43)=CC[C@@H]12` [Galeterone (TOK-001), Galeterone] the inhibition at 10 µM was 69%. `C[C@@]1(O)[C@H](O)[C@@H](CO)O[C@H]1n1ccc(N)nc1=O` [NM107, 2′-C-methylcytidine, 2′-C-methylcytidine] gave an inhibition at 10 µM of 60.1%. Molecule `NCCC(=O)N[C@@H](Cc1cnc[nH]1)C(=O)O` [Carnosine] has an inhibition at 10 µM of 94.3%. With `CC(=O)NC(Cc1ccccc1)C(=O)O` (stereo not drawn) [AFALANINE] the inhibition at 10 µM was 62.1%. `C[C@H](/C=C/[C@H](C)C(C)(C)O)[C@H]1CC[C@H]2/C(=C/C=C3C[C@@H](O)C[C@H](O)C3)CCC[C@]12C` [PARICALCITOL] was tested, and the inhibition at 10 µM was 86%. `C=CC(N)CCC(=O)O` (stereo not drawn) [Vigabatrin] showed an inhibition at 10 µM of 52.5%. Molecule `Cc1c(CN2CCN(C(=O)[C@H](C)O)CC2)sc2c(N3CCOCC3)nc(-c3cnc(N)nc3)nc12` [Apitolisib (GDC-0980, RG7422), Apitolisib] has an inhibition at 10 µM of 102%. Work on `O=C1NC(c2cccc([N+](=O)[O-])c2)=CCN1c1ccccc1O` [icilin] yielded an inhibition at 10 µM of 55.1%. `COc1ccc(NC(=O)c2ccc(-c3ccc(-c4noc(C)n4)cc3C)cc2)cc1N1CCN(C)CC1` [GR-127935] was tested, and the inhibition at 10 µM was 53.7%. `COCC(=O)O[C@]1(CCN(C)CCCc2nc3ccccc3[nH]2)CCc2cc(F)ccc2[C@@H]1C(C)C` [mibefradil] showed an inhibition at 10 µM of 52.4%. `O=CC=Cc1ccccc1` [cinnamaldehyde] showed an inhibition at 10 µM of 62.3%.

Same assay, conditions: Severe acute respiratory syndrome coronavirus 2, Caco-2, 48 h, read-out: pIC50 (converted)
Molecule `C[C@@H]1CN(Cc2ccc(F)cc2)[C@@H](C)CN1C(=O)c1cc2c(C(=O)C(=O)N(C)C)cn(C)c2cc1Cl` [talmapimod] has an IC50 of 22.9 µM. `Cc1nc(C#Cc2ccnc(Cl)c2)c(C)n1-c1ccc(F)cc1` [Basimglurant] was tested, and the IC50 was 25.1 µM. `Cc1cc(C)c2c(c1)[C@@H](N(Cc1cc(C(F)(F)F)cc(C(F)(F)F)c1)c1nnn(C)n1)CCCN2C[C@H]1CC[C@H](C(=O)O)CC1` [Evacetrapib (LY2484595), Evacetrapib] gave an IC50 of 26.9 µM.
